Experimental data published in PubChem BioAssay (NCI).
Values joined by “and” are separate entries in the source; they are usually repeats but may differ in a detail not shown here. Identical values can stand only once.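 All cell lines were grown in 96-well plates and treated with compound for 48 hours. Here, GI50 denotes the concentration required for 50% inhibition of growth. TGI: total growth inhibition.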

Tests used:
Experiment in all cases: inhibition of tumour cell growth, NCI panel, 48 h
SK-OV-3 ovarian = tested on: SK-OV-3 ovarian
HCC-2998 colon = tested on: HCC-2998 colon
CAKI-1 renal = tested on: CAKI-1 renal
A498 renal = tested on: A498 renal
TK-10 renal = tested on: TK-10 renal
KM12 colon = tested on: KM12 colon
UACC-257 melanoma = tested on: UACC-257 melanoma
EKVX NSCLC = tested on: EKVX NSCLC
NCI/ADR-RES ovarian = tested on: NCI/ADR-RES ovarian
HS 578T breast = tested on: HS 578T breast

Row | Compound | TGI (SK-OV-3 ovarian) [µM] | TGI (HCC-2998 colon) | TGI (CAKI-1 renal) [µM] | TGI (A498 renal) [µM] | TGI (TK-10 renal) [µM] | TGI (KM12 colon) [µM] | TGI (UACC-257 melanoma) | TGI (EKVX NSCLC) [µM] | GI50 (NCI/ADR-RES ovarian) [µM] | GI50 (SK-OV-3 ovarian) | GI50 (HCC-2998 colon) | GI50 (CAKI-1 renal) [µM] | GI50 (HS 578T breast) [µM] | TGI (HS 578T breast) [µM] | GI50 (A498 renal) | GI50 (TK-10 renal) [µM] | GI50 (KM12 colon) [µM] | GI50 (UACC-257 melanoma) | TGI (NCI/ADR-RES ovarian) | GI50 (EKVX NSCLC) [µM]
1 | NNC(=O)CCC(=O)Nc1cc(Cl)c(Cl)cc1Cl | > 100 | > 100 µM | > 100 | > 100 | > 100 | > 100 | > 100 µM | – | – | – | – | – | – | – | – | – | – | – | – | –
2 | C=C1C(=O)OC2C1CC[C@H](C)C13OC(=O)CC1[C@@]23C (stereo not given in full) | > 100 | > 100 µM | > 100 | > 100 | > 100 | > 100 | > 100 µM | > 100 | – | – | – | – | – | – | – | – | – | – | – | –
3 | COc1ccc(-c2cnnn2-c2cc(OC)c3c(c2)OCO3)cc1 | > 100 | – | > 100 | 0.633 | > 100 | > 30.8 | > 100 µM | – | 0.0403 | 0.348 µM | 0.307 µM | 0.118 | 0.186 | > 100 | 0.0444 µM | 25 | 0.0564 | 35.4 µM | – | –
4 | CCCCCCC#Cc1ccccc1C#CCO | 34.4 | 42.6 µM | 33.2 | – | 61.4 | 37.6 | 62.7 µM | 50.6 | 18.7 | 18.4 µM | 23.7 µM | 14.6 | 17.2 | 39.4 | – | 22.6 | 18.6 | 26.5 µM | 34.4 µM | 21.9
5 | COc1cc2c3c(n(CCCNCC(OC)OC)c(=O)c2cc1OC)-c1cc2c(cc1C3=O)OCO2 | > 100 | – | 17.2 | 33.9 | 47.8 | 34.6 | > 89.2 µM | > 57.3 | 0.338 | 22.8 µM | – | 0.219 | 10.4 | > 29.3 | 14 µM | 11.9 | 2.14 | 33.3 µM | 29.3 µM | 15.7
6 | CCOC(=O)C1=C(NNC(=O)Cc2ccccc2)CSC1=Nc1ccccc1 | > 100 | > 100 µM | > 100 | > 100 | > 100 | > 100 | > 100 µM | > 100 | – | – | – | – | – | – | – | – | – | – | – | –
7 | CCC(CC)n1cc(C(=O)NC(=O)NCCCCCOC(=O)CCCCCCCCCCC(=O)OCCCCCNC(=O)NC(=O)c2cn(C(CC)CC)c(=O)[nH]c2=O)c(=O)[nH]c1=O | > 100 | > 100 µM | > 100 | > 100 | > 100 | > 100 | > 100 µM | > 100 | – | – | – | – | – | – | – | – | – | – | – | –
8 | Cc1cccc(NC(=O)c2cc3cc(N=Nc4ccccc4Cl)ccc3oc2=O)c1 | > 100 | 70.4 µM | > 100 | > 100 | 86.2 | 48.4 | > 100 µM | > 100 | – | – | – | – | – | – | – | – | – | – | – | –
9 | N#C/C(=C1\NN=C(N)C(c2ccc(Cl)cc2)=C1O)c1ccc(Cl)cc1 | > 100 | > 100 µM | > 100 | > 100 | > 100 | > 100 | > 100 µM | > 100 | – | – | – | – | – | – | – | – | – | – | – | –
10 | O=c1[nH]nc2ccccc2c1Cl | 33.5 | 7.27 µM | 12 | 33.2 | 33 | 26.6 | 29.7 µM | 15.5 | – | – | – | – | – | – | – | – | – | – | – | –
11 | COC(C(=O)C(O)C(C)O)C1Cc2cc3cc(OC4CC(OC(C)=O)C(OC5CC(O)C(OC)C(C)O5)C(C)O4)cc(O)c3c(O)c2C(=O)C1OC1CC(OC2CC(OC3CC(C)(O)C(OC(=O)C(C)C)C(C)O3)C(O)C(C)O2)C(O)C(C)O1 (stereo not given) | – | – | – | – | – | – | 0.0977 µM and 0.0249 µM and < 0.0492 µM | – | – | 0.0217 µM and 0.0423 µM | – | – | – | 0.175 | 0.154 µM and 0.0248 µM | – | – | 0.00348 µM and < 0.0155 µM | 63.7 µM and > 100 µM | 0.0723
12 | Nc1ccn(CCO)c(=O)n1 | > 100 | > 100 µM | > 100 | > 100 | > 100 | > 100 | > 100 µM | > 100 | – | – | – | – | – | – | – | – | – | – | – | –
13 | CC1CC(c2cccc3c2OCO3)=Nc2ccccc2S1 (stereo not given) | > 100 | > 100 µM | > 100 | > 100 | > 100 | > 100 | > 100 µM | > 100 | – | – | – | – | – | – | – | – | – | – | – | –
14 | O=C1OC(CC(=O)c2ccc(Cl)cc2Cl)C(Cl)=C1Cl (stereo not given) | > 63.4 | 29.4 µM | > 70.3 | > 100 | > 79 | > 100 | > 100 µM | > 76.9 | – | – | – | – | – | – | – | – | – | – | – | –
15 | CC1CC2C(=O)N(c3ccccc3)C(=O)C2c2c1c1ccccc1n2Cc1ccccc1 (stereo not given) | > 100 | – | > 100 | – | – | > 100 | – | > 100 | – | – | – | – | – | – | – | – | – | – | – | –
16 | COC1(O)C(=O)c2ccccc2OC1(OC)c1ccccc1 (stereo not given) | – | > 100 µM | > 100 | > 100 | > 100 | – | > 100 µM | > 100 | – | – | – | – | – | > 100 | – | – | – | – | > 100 µM | –
17 | Cc1nn(-c2ccccc2)c2c1CC(=O)Nc1ccccc1-2 | 43.8 | 7.54 µM and 2.49 µM | > 100 | – | 92.2 | > 100 | > 100 µM | – | – | 0.332 µM | 0.624 µM and 0.222 µM | 0.346 | – | – | 0.027 µM | – | 0.0888 | 0.273 µM | 3.73 µM | –
18 | OCC(O)C(OC1OC(CO)C(O)C(O)C1O)c1nn(-c2ccccc2)c2nc3cc(Cl)c(Cl)cc3cc12 (stereo not given) | > 100 | > 100 µM | – | > 100 | > 100 | > 100 | > 100 µM | > 100 | – | – | – | – | – | – | – | – | – | – | – | –
19 | C=C(C)C(=O)OC1CC2=CC(CC3(C)OC3C3OC(=O)C(=C)C13)OC2=O (stereo not given) | 36.8 | 34.8 µM | 12.7 | 30.2 | 15.3 | 32.1 | 13.7 µM | 30.9 | – | – | – | – | – | 44.3 | – | – | – | – | – | –
20 | C[C@H]1[C@H](C)CC[C@]2(C(=O)N3CCN(C)CC3)CC[C@]3(C)C(=CC[C@@H]4[C@@]5(C)C/C(=C/c6cccnc6)C(=O)C(C)(C)[C@@H]5CC[C@]43C)[C@H]12 | 3.22 | 2.67 µM | 2.46 | 2.92 | 3.04 | 2.56 | 2.91 µM | 2.99 | – | 1.71 µM | 1.28 µM | 1.22 | 1.43 | 5.4 | 1.52 µM | 1.54 | 0.976 | 1.41 µM | – | 1.59
21 | NC(=O)c1oc([N+](=O)[O-])c(-c2ccccc2)c1-c1ccccc1 | > 100 | – | 48.1 | – | 72.8 | 40.9 | 34.7 µM | 48.4 | – | – | – | – | – | 28.2 | – | – | – | – | 57.2 µM | –
